In patent US5852017A, “2,3(1H,4H)-quinoxalinediones” (BASF Aktiengesellschaft, priority 1992, dated 1998) one finds Ki data, which are given here for two molecules.

In experiment [1] the target is NMDA (N-methyl-D-aspartate) receptors. The experiment in a line: Binding of 3H-5,7-dichlorokynurenic acid to rat cerebra membrane material. The note with it: displacement of 3H-5,7-dichlorokynurenic acid, membrane material from rat cerebra, incubated on ice for 30 minutes. The protocol:
(§1) The pharmacological activity of the compounds I and I' according to the invention was investigated on membrane material isolated from rat cerebra. To do this, the membrane material was treated in the presence of the compounds according to the invention with the radio-labeled substances ^3 H-2-amino-3-hydroxy-5-methyl-4-isoxazolepropionic acid (^3 H-AMPA) and ^3 H-5,7-dichlorokynurenic acid, which bind to specific receptors (AMPA and NMDA (N-methyl-D-aspartate) receptors respectively). The radioactivity of the treated membranes was then measured by scintillation counting. The amounts of bound ^3 H-AMPA and ^3 H-5,7-dichlorokynurenic acid, or the amounts of these radiolabeled substances displaced in each case, can be determined from the bound radioactivity. The resulting dissociation constant KI (I=inhibitor), which is a measure of the displacement by the active substance according to the invention, was calculated by iterative non-linear regression analysis with the statistical analysis system (SAS) on an IBM computer, similar to the "Ligand" program of P. J. Munson and D. Rodbard (Analytical Biochem. 107, (1980) 220, Ligand: Versatile Computerized Approach for Characterization of Ligand Binding Systems).
2. Binding of ^3 H-5,7-dichlorokynurenic acid […]

Experiment [2] deals with AMPA receptors. Description: Binding of 3H-AMPA to rat cerebra membrane material. The note with it: displacement of 3H-AMPA, membrane material from rat cerebra, incubated on ice for 60 minutes. The protocol: as §1
1. Binding of ^3 H-2-amino-3-hydroxy-5-methyl-4-isoxazolepropionic acid (^3 H-AMPA) […]

In the case of `O=c1[nH]c2cc(-n3cccc3)c(C(F)(F)F)cc2[nH]c1=O` [Example 2, 6-(1-Pyrrolyl)-7-trifluoromethyl-2,3(1H,4H)-quinoxalinedione], in experiment [1], the Ki was < 10 µM.

Consider `O=c1[nH]c2cc(Cl)c(-n3cccc3)cc2[nH]c1=O` [Example 1, 7-Chloro-6-(1-pyrrolyl)-2,3(1H,4H)-quinoxalinedione], for which the inhibition constant Ki in experiment [2] is < 10 µM.
